Here are results for 18 compounds from ChEMBL document CHEMBL1134057, “Synthesis of polyamine derivatives having non-hypotensive Ca2 +-permeable AMPA receptor antagonist activity” (Bioorg Med Chem Lett, 2001).

For experiment [1], the target named is Glutamate receptor ionotropic, AMPA (Rattus norvegicus, UniProt P19490+P19491+P19492+P19493).
The species entered for experiment [2] is Rattus norvegicus. To be noted: dose 3 mg/kg; route intravenous.
Description: Change in systolic blood pressure(SBP) after intravenous administration of 3 mg/kg in rats compared with SBP before dosing
The target of experiment [3] is Glutamate receptor ionotropic, AMPA (Rattus norvegicus) (UniProt P19491+P19492+P19493+P19490). Kind of experiment: Antagonist activity for [Ca2+] permeable Ionotropic glutamate receptor AMPA expressed in Xenopus oocytes by injection of rat brain mRNA at 1 uM. The experiment is classed as functional, cell-based. To be noted: Oocyte.

By IC50 is commonly meant the concentration needed to halve the response being measured. A high value points to lower potency. The inhibition is how much of the control response was suppressed. A high value points to a response far below the control.

For the compound `NCCCNCCCCNCC1CCN(C(=O)Cc2cccc3ccccc23)CC1`, the midpoint of inhibition in experiment [1], the IC50, lay at 320 nM. The “Delta SBP” value in experiment [2] is -35 mmHg.
For `CN1CCC(CNCCCCNCC2CCN(C(=O)Cc3cccc4ccccc34)CC2)CC1`, in that order: 570 nM and -50 mmHg.
In turn, `NC(=O)C[C@@H](NC(=O)Cc1cccc2ccccc12)C(=O)N1CCC(CNCCCCNCC2CCNCC2)CC1` showed an IC50 in experiment [1] of 270 nM. In addition, the “Delta SBP” value in experiment [2] is given as -75 mmHg.
The like results for `O=C(Cc1cccc2ccccc12)NCCCCCC(=O)N1CCC(CNCCCCNCC2CCNCC2)CC1` were, in that order, 420 nM and -40 mmHg.
On to `CN1CCCCC1CNCCCCNCC1CCN(C(=O)Cc2cccc3ccccc23)CC1` (stereo not given), for which the “Delta SBP” value in experiment [2] was 11 mmHg. Moreover, in experiment [3], the inhibition stood at 27%.
Turning to `NCCNCCCCNCC1CCN(C(=O)Cc2cccc3ccccc23)CC1`, in experiment [1], the IC50 came out at 330 nM. In experiment [2], the “Delta SBP” value was -50 mmHg.
Turning to `O=C(Cc1cccc2ccccc12)N1CCC(CNCCCCNCCN2CCOCC2)CC1`, the “Delta SBP” value in experiment [2] stood at 0 mmHg. Moreover, the inhibition in experiment [3] is 18%.
In experiment [1], `O=C(Cc1cccc2ccccc12)N1CCC(CNCCCCNCC2CCN(c3ccncc3)CC2)CC1` showed an IC50 of 170 nM. Also, in experiment [2], the “Delta SBP” value is -43 mmHg.
The compound `O=C(Cc1cccc2ccccc12)N1CCC(CNCCCCNCCN2CCCCC2)CC1` registered a half-maximal inhibitory concentration (IC50) in experiment [1] of 190 nM. Further, the “Delta SBP” value in experiment [2] is 5 mmHg.
Regarding `CN1CCCC1CCNCCCCNCC1CCN(C(=O)Cc2cccc3ccccc23)CC1` (stereo not given), the IC50 in experiment [1] worked out at 780 nM. For the same compound, the “Delta SBP” value in experiment [2] is -55 mmHg.
On to `c1ccc2c(CCN3CCC(CNCCCCNCC4CCNCC4)CC3)cccc2c1`, for which the inhibition in experiment [3] was found to be 28%.
On to `O=C(Cc1cccc2ccccc12)N1CCC(CNCCCCNCC2CCCN2)CC1` (stereo not given), for which the midpoint of inhibition in experiment [1], the IC50, lay at 730 nM. For the same compound, in experiment [2], the “Delta SBP” value is given as 0 mmHg.
`CN1CCCC1CNCCCCNCC1CCN(C(=O)Cc2cccc3ccccc23)CC1` (stereo not given): in experiment [2], the “Delta SBP” value came out at 13 mmHg. Moreover, the inhibition in experiment [3] was found to be 41%.
Take `O=C(Cc1cccc2ccccc12)N1CCC(CNCCCCNCC2CCCNC2)CC1` (stereo not given): in experiment [1], half-maximal inhibition (IC50) was put at 820 nM. In addition, the “Delta SBP” value in experiment [2] is given as -58 mmHg.
For the compound `O=C(Cc1cccc2ccccc12)NCC(=O)N1CCC(CNCCCCNCC2CCNCC2)CC1`, the IC50 in experiment [1] is 490 nM. The “Delta SBP” value in experiment [2] is -50 mmHg.
For `O=C(Cc1cccc2ccccc12)N1CCC(CNCCCCNCC2CCCCN2)CC1` (stereo not given), in that order: 1100 nM and 0 mmHg.
`O=C(Cc1cccc2ccccc12)N1CCC(CNCCCCNCCCn2ccnc2)CC1`: the concentration for half-maximal inhibition (IC50) in experiment [1] amounted to 260 nM. In addition, the “Delta SBP” value in experiment [2] is on record as -25 mmHg.
For `O=C(Cc1cccc2ccccc12)N1CCC(CNCCCCNCC2CCNCC2)CC1`, in that order: 1300 nM and -120 mmHg.
